Assay results from paper PMC9645344, “Serotonin-releasing agents with reduced off-target effects” (Molecular Psychiatry, 2022).

What was measured:
[1] = target: T1, human DAT (Homo sapiens, UniProt Q01959); experiment: DAT uptake inhibition assay in HEK293 cells ([3H]MPP+); format: cell-based; details: for DAT/SERT ratio: (1/DAT IC50)/(1/SERT IC50), higher values indicate higher DAT-selectivity
T1 construct: expressed in transfected cells
Experimental: Human embryonic kidney 293 (HEK293) cells stably expressing the human isoforms of either DAT or SERT were maintained in Dulbecco’s Modified Eagle Medium (DMEM), supplemented with 10% fetal calf serum at a subconfluent state in humidified atmosphere (5% CO2, 37 °C).
Uptake inhibition assays were performed as described earlier. Briefly, HEK293 cells stably expressing human SERT or DAT were seeded onto poly- D-lysine (PDL) coated 96-well plates (40,000 cells well^−1) the day before an experiment. Prior to the uptake inhibition assay, DMEM was replaced with Krebs-HEPES buffer (KHB, 25 mM HEPES, 120 mM NaCl, 5 mM KCl, 1.2 mM CaCl2, 1.2 mM MgSO4, and 5 mM D-glucose, pH 7.3) and the cells were preincubated with test drugs for 5 min at room temperature. Uptake assays were initiated by adding 20 nM [^3H]MPP^+ to DAT cells or 100 nM [^3H]5-HT to SERT cells. After 180 s (DAT) or 60 s (SERT), the tritiated substrate was removed by aspiration. Cells were washed once with ice-cold KHB, then lysed in 1% sodium dodecyl sulfate (SDS) and subjected to liquid scintillation counting to quantify tritium accumulated in each sample. Non-specific uptake was determined in the presence of mazindol (1 µM) for DAT or paroxetine (1 µM) for SERT and subtracted throughout.

[2] = target: T2, 5-HT2C receptor (Homo sapiens, UniProt P28335); experiment: 5-HT receptor-dependent induction of GCamP6s fluorescence in HEK293 cells; format: cell-based; details: 1 µM; GCamP6s fluorescence normalized to 1 µM 5-HT
T2 construct: expressed in transfected cells
T2 sequence (P28335 33-458): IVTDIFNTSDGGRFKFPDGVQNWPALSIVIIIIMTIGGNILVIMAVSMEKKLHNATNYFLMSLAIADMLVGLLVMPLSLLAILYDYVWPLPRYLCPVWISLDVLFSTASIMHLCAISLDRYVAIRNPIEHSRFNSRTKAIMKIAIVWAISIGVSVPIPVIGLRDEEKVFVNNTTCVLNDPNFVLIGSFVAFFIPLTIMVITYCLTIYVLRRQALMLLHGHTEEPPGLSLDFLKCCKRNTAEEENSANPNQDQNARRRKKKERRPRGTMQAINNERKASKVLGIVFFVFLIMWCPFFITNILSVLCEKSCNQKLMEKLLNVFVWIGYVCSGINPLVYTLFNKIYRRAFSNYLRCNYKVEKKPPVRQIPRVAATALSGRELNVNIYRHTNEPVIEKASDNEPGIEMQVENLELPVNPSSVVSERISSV
Experimental: (§1) All cloning steps were performed using NEB Builder (New England Biolabs, Frankfurt/Main, Germany). GCamP6s was cloned into pcDNA3.1. GCaMP is a genetically encoded calcium indicator which allows measurement of calcium flux. To allow for visual inspection of co-expressed 5-HT2 receptors, the enhanced cyan fluorescent protein (eCFP) was added to the C-Terminus of the 5-HT2 receptors. The resulting constructs were then cloned into pcDNA4-TO to allow tetracycline dependent expression.
(§2) In a first step, HEK293 cells were transfected with pcDNA6-TR and cells stably expressing the Tet-repressor were selected by the addition of blasticidin (60 µg ml^−1). In a second step, one of the resulting clones was transfected with one of the 5-HT2 receptor constructs and stable clones were selected by the addition of zeocin (150 µg ml^−1). Suitable clones were selected by visual inspection of the eCFP signal at the plasma membrane. In a last step, the eCFP positive clones were transfected with GCamp6s, and stable clones were selected using G418 (250 µg ml^−1). The resulting clones were sorted via FACS to isolate GCaMP6s (green fluorescent protein) positive cells and the resulting polyclonal cell lines were used for further experiments. Cells were maintained in DMEM supplemented with 2% fetal bovine serum, blasticidin, zeocin, and G418 at concentrations described above. To induce receptor expression, tetracycline (1 µg ml^−1) was added to the medium 18–24 h prior to the experiment.
(§3) Imaging experiments were performed at room temperature (22–27 °C). Medium was exchanged for KHB 10 min prior to the experiment and cells were continuously superfused with KHB, using a fast superfusion device (DAD12, ALA Scientific, Farmingdale, NY, USA). Test drugs (0.1, 1, 10 µM) or 5-HT (1 µM) were applied for 30 s, interleaved by KHB superfusion for 300 s. GCamp6s fluorescence was monitored using an inverted microscope (Nikon Eclipse Ti2) equipped with a Nikon ×40 WI (NA 1.25) objective (Nikon Europe, Amsterdam, Netherlands). Fluorescence was excited using a 470 nm LED (Coolled pe4000, Coolled, Andover, NY, USA). Excitation light was filtered through a 480/20 nm bandpass filter and reflected via 505 nm dichroic mirror. Emission light was filtered using a 535/25 nm optical bandpass filter (Nikon Europe, Amsterdam, Netherlands). Images were taken at a frequency of 1 image s^−1 with an exposure time of 20–30 ms using an sCMOS camera (Andor Zyla 5.5, Oxford Instruments, Abingdon, UK) and NIS-Elements 5.2 software (Laboratory Imaging, Praha, Czech Republic).
(§4) Image Stacks were background corrected by subtracting the mean intensity of […]. For each image the mean fluorescence intensity of 1–5 ROIs consisting of several clustered cells was measured. The change in intensity of the GCamP6s fluorescence was calculated as the intensity at the end of test drug application minus the intensity before substance application, normalized to the increase of fluorescence evoked by the application of 1 µM 5-HT. Data represent 1–5 fields of view from three independent experiments

[3] = target: T3, 5-HT2A receptor (Homo sapiens, UniProt P28223); experiment: as above; format: cell-based; details: GCamP6s fluorescence normalized to 1 µM 5-HT
T3 construct: expressed in transfected cells
Experimental: as §1, §2, §3, §4

[4] = target: T4, 5-HT2B receptor (Homo sapiens, UniProt P41595); experiment: as above; format: cell-based; details: GCamP6s fluorescence normalized to 1 µM 5-HT
Experimental: as §1, §2, §3, §4

[5] = target: T4, 5-HT2B receptor; parameters: method as in PMID 30610839; details: concentrations as high as 7 µM; cited from earlier work

T1 sequence (Q01959 whole entry): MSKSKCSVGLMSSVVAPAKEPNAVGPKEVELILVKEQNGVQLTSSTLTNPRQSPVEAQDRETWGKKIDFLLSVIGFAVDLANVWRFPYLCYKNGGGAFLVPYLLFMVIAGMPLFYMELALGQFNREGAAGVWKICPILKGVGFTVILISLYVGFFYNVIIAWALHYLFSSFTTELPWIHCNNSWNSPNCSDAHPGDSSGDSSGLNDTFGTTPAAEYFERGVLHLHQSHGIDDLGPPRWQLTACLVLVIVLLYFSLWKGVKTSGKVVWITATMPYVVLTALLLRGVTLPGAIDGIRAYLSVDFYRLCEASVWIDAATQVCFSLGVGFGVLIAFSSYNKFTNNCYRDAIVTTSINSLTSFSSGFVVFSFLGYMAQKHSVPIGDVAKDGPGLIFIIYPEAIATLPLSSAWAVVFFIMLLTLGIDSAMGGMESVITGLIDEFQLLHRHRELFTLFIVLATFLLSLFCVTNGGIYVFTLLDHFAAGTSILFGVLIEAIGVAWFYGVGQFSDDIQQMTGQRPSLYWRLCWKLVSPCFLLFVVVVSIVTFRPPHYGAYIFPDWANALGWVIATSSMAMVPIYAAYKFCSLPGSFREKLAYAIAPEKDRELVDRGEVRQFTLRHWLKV
T4 sequence (P41595 whole entry): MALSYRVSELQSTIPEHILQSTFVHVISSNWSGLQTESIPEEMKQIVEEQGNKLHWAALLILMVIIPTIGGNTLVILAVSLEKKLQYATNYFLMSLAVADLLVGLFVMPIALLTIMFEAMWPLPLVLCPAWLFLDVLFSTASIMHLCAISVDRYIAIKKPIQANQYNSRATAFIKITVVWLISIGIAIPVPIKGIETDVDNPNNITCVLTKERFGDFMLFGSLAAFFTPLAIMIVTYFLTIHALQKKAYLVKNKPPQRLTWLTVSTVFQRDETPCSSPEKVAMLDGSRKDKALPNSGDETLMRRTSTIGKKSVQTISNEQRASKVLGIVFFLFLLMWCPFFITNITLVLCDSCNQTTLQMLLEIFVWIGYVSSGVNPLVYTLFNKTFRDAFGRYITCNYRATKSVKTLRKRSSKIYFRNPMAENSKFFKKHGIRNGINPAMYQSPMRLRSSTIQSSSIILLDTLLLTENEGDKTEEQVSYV
T3 sequence (P28223 whole entry): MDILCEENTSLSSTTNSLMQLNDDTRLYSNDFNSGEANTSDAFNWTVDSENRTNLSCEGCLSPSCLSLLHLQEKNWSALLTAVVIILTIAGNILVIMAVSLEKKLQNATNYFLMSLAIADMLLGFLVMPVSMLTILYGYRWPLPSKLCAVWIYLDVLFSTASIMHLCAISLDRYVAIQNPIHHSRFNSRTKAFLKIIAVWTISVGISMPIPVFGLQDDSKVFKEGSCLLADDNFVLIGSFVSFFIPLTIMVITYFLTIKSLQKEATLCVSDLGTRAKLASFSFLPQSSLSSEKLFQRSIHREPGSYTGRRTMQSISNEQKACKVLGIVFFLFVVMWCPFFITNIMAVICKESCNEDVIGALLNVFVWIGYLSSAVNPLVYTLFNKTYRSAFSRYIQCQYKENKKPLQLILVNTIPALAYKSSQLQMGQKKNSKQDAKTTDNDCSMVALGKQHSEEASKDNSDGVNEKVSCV

For `Cc1ccc(C(=O)[C@H](C)N)cc1` [S-4-MC, 4-methylcathinone], which IC50 [1] is on record?
The IC50 was 6.65 µM.

What about the DAT/SERT ratio [1] of the same molecule?
The DAT/SERT ratio was 1.9.

And the “activation of 5-HT2C receptor” value [2]?
The value was “neither test drug activated”.

And the “activation of 5-HT2A receptor” value ([3]; 1 µM)?
The value was “neither test drug activated”.

What about the “activation of 5-HT2A receptor” value ([3]; 10 µM) of the same molecule?
The value was “displayed activity”.

And the “activation of 5-HT2B receptor” value ([4]; 1 µM)?
The value was “neither test drug activated”.

And the “activation of 5-HT2B receptor” value ([4]; 10 µM)?
Its value is “moderate effects”.

And the “binding to the 5-HT2B receptor” value [5]?
The value was “no binding”.

With `CN[C@@H](C)C(=O)c1ccc(C(F)(F)F)cc1` [S-4-TFMMC, 4-trifluoromethyl-N-methylcathinone] as the molecule, how does the IC50 [1] read?
The IC50 was 190 µM.

What about the DAT/SERT ratio [1] of the same molecule?
The DAT/SERT ratio was 0.05.

And the “activation of 5-HT2C receptor” value [2]?
The value was “neither test drug activated”.

And the “activation of 5-HT2A receptor” value ([3]; 1 µM)?
The value was “neither test drug activated”.

What about the “activation of 5-HT2B receptor” value ([4]; 1 µM) of the same molecule?
Its value is “neither test drug activated”.
